The values that follow come from patent US8034940B2, “Modulators of glucocorticoid receptor, AP-1, and/or NF-κB activity and use thereof” (Bristol-Myers Squibb Company, priority 2006, dated 2011).

For assay [1], the system named is AP-1 induced transcriptional activity. Briefly: Cellular Transrepressional Assay (AP-1 luciferase reporter, PMA-activated A549 cells). The assay is classed as cell-based. Conditions: Homo sapiens, A549, 7 h, maximum inhibition, Cellular Transrepression Assay; read-out: AP-1 Max % inh (Cellular Transrepression Assay). Summed up: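 Compounds tested from 0.1 nM to 40 μM during a 7 h PMA (10 ng/ml) stimulation of A549 cells stably transfected with 7× AP-1 sites driving luciferase. Repression expressed as % reduction of PMA-induced luminescence; EC50 by curve fitting.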
On the technique in general: In a reporter assay the amount or activity of a reporter protein is the signal.

Assay [2] addresses T1, human full-length glucocorticoid receptor (Homo sapiens, UniProt P04150).
T1 sequence (P04150 1-777): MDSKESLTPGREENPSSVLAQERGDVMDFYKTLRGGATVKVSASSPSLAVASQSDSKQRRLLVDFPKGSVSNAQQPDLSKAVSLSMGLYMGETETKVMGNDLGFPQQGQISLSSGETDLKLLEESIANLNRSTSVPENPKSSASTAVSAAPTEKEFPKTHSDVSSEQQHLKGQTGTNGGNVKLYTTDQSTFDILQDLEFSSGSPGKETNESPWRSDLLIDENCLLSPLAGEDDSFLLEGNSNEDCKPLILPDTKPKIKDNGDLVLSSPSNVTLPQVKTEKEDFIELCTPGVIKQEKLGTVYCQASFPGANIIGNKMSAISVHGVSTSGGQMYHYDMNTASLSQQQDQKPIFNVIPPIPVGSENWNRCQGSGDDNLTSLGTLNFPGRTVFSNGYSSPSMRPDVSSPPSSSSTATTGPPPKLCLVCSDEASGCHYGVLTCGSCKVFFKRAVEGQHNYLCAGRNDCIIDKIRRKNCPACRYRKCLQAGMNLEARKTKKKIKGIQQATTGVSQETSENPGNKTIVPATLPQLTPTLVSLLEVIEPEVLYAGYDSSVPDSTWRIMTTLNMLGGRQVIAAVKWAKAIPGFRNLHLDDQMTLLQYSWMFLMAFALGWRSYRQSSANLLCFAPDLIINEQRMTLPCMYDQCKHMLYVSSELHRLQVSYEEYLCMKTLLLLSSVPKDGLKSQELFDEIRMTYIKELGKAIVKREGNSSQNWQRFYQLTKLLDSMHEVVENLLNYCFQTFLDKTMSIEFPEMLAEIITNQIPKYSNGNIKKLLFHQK
As to the kind of experiment: Glucocorticoid Receptor Binding Assay (I), fluorescence polarization, Fluormone GS Red. On the set-up: purified human recombinant full-length glucocorticoid receptor; purchased Invitrogen Part #2893. Here is the method:
Glucocorticoid Receptor Binding Assay (I)^a
Briefly, purified human recombinant full-length glucocorticoid receptor (2 nM) was mixed with fluorescently labeled glucocorticoid (1 nM Fluormone GS Red) in the presence or absence of test compound. After two hour incubation at room temperature in the dark, the fluorescence polarization (FP) of the samples was measured. […] Test compounds were analyzed in the concentration range from 8.5E-05 μM to 5 μM.
(In fluorescence polarisation assays a small probe gives low polarisation when free and higher when bound to something large.)

Where [3] appears, read: GR Binding Assay (I), read-out: GR (Ki, nM) (GR Binding Assay (I)).

Molecules are shown by their SMILES. Where two headings read alike, the source gives them in different places.

With `CC(C)CCN(C)C(=O)c1ccc(-c2ccc3c(n2)Oc2ccccc2[C@@H]3C(C)(C)C(=O)Nc2nncs2)cc1` [Example 270], the Emax in assay [1] amounted to 28%. The Ki (commonly a measure of affinity in units of concentration, obtained from inhibition or displacement) in assay [2] (setting [3]) stood at 20.9 nM.

Turning to `CC1CN(C(=O)c2ccc(-c3ccc4c(n3)Oc3ccccc3[C@@H]4C(C)(C)C(=O)Nc3nncs3)cc2)CC(C)O1` (some centres unmarked) [Example 273], in assay [1], the Emax was 21%. Besides, the inhibition constant Ki in assay [2] (setting [3]) amounted to 19.9 nM.

`CC(C)(C(=O)Nc1nncs1)[C@H]1c2ccccc2Oc2nc(-c3ccc(C(=O)N4CCN(CCO)CC4)cc3)ccc21` [Example 275]: the Emax in assay [1] came out at 26%. Besides, the Ki in assay [2] (setting [3]) amounted to 2.6 nM.

In the case of `CN(CCc1ccccc1)C(=O)c1ccc(-c2ccc3c(n2)Oc2ccccc2[C@@H]3C(C)(C)C(=O)Nc2nncs2)cc1` [Example 276], the Emax in assay [1] turned out to be 27.2%. Besides, in assay [2] (setting [3]), the Ki was found to be 4.05 nM.

As for `CC(=O)N1CCCN(C(=O)c2ccc(-c3ccc4c(n3)Oc3ccccc3[C@@H]4C(C)(C)C(=O)Nc3nncs3)cc2)CC1` [Example 277], in assay [1], the Emax was determined as 24.5%. Besides, the Ki in assay [2] (setting [3]) was 81.3 nM.

Take `CC(C)(C(=O)Nc1nncs1)[C@H]1c2ccccc2Oc2nc(-c3ccc(C(=O)N4CCc5ccccc5C4)cc3)ccc21` [Example 280]: the Emax in assay [1] came to 33.5%. In assay [2] (setting [3]), the Ki is 10.8 nM.

Take `CCS(=O)(=O)N1CCN(C(=O)c2ccc(-c3ccc4c(n3)Oc3ccccc3[C@@H]4C(C)(C)C(=O)Nc3nncs3)cc2)CC1` [Example 283]: the Emax in assay [1] is 24.6%. Moreover, the Ki in assay [2] (setting [3]) stood at 9.21 nM.

In the case of `COC[C@H]1CCCN1C(=O)c1ccc(-c2ccc3c(n2)Oc2ccccc2[C@@H]3C(C)(C)C(=O)Nc2nncs2)cc1` [Example 285], the Emax in assay [1] came out at 45.3%. In addition, in assay [2] (setting [3]), the Ki was 5.84 nM.

As for `CN(CCS(C)(=O)=O)C(=O)c1ccc(-c2ccc3c(n2)Oc2ccccc2[C@@H]3C(C)(C)C(=O)Nc2nncs2)cc1` [Example 286], the Emax in assay [1] stood at 49.8%. Further, in assay [2] (setting [3]), the Ki amounted to 12.2 nM.

`CC(C)(C(=O)Nc1nncs1)[C@H]1c2ccccc2Oc2nc(-c3ccc(C(=O)N4CCC(S(C)(=O)=O)C4)cc3)ccc21` (some centres unmarked) [Example 288]: in assay [1], the Emax is 35.5%. Further, the Ki in assay [2] (setting [3]) stood at 13.8 nM.

With `COC1CN(C(=O)c2ccc(-c3ccc4c(n3)Oc3ccccc3[C@@H]4C(C)(C)C(=O)Nc3nncs3)cc2)C1` [Example 289], in assay [1], the Emax was found to be 24.3%. Also, the Ki in assay [2] (setting [3]) came to 20 nM.

Take `CC(C)(C(=O)Nc1nncs1)[C@H]1c2ccccc2Oc2nc(-c3ccc(C(=O)N4CCC(C(F)(F)F)CC4)cc3)ccc21` [Example 290]: the Emax in assay [1] turned out to be 28.8%. The Ki in assay [2] (setting [3]) is 20.4 nM.

In the case of `COC(=O)[C@H]1CCCCN1C(=O)c1ccc(-c2ccc3c(n2)Oc2ccccc2[C@@H]3C(C)(C)C(=O)Nc2nncs2)cc1` [Example 291], the Emax in assay [1] was 27%. For the same compound, the Ki in assay [2] (setting [3]) is 44 nM.

With `COC(=O)CN(C)C(=O)c1ccc(-c2ccc3c(n2)Oc2ccccc2[C@@H]3C(C)(C)C(=O)Nc2nncs2)cc1` [Example 293], the Emax in assay [1] was 25.4%. Besides, the Ki in assay [2] (setting [3]) was 10.4 nM.

For `CN(CCO)C(=O)c1ccc(-c2ccc3c(n2)Oc2ccccc2[C@@H]3C(C)(C)C(=O)Nc2nncs2)cc1` [Example 294], the Emax in assay [1] is 59.4%. Also, the Ki in assay [2] (setting [3]) is 29.3 nM.

As for `CN(C)C(=O)c1ccc(-c2ccc3c(n2)Oc2ccccc2C3C(C)(C)C(=O)Nc2ccn(C)n2)cc1` (centres unmarked) [Example 366], the Ki in assay [2] (setting [3]) was 200 nM.

For the compound `CN(C)C(=O)c1ccc(-c2ccc3c(n2)Oc2ccccc2C3C(C)(C)C(=O)NCC(F)(F)F)cc1` (centres unmarked) [Example 367], in assay [2] (setting [3]), the Ki turned out to be 692 nM.

As to `CC(C)(C(=O)Nc1nncs1)[C@H]1c2ccccc2Oc2nc(C#N)ccc21` [Example 395], the Ki in assay [2] (setting [3]) was determined as 1.19 nM.

As for `CC(C)(C(=O)Nc1nncs1)[C@H]1c2ccccc2Oc2nc(C(=O)NCc3ccccc3)ccc21` [Example 396], the Ki in assay [2] (setting [3]) amounted to 10.6 nM.

For `CC(=O)c1ccc2c(n1)Oc1ccccc1[C@@H]2C(C)(C)C(=O)Nc1nncs1` [Example 397], the Ki in assay [2] (setting [3]) was 40.9 nM.

With `CC(C)(C(=O)Nc1nncs1)[C@H]1c2ccccc2Oc2nc(N3CCN(C(=O)N4CCCC4)CC3)ccc21` [Example 400], the Ki in assay [2] (setting [3]) amounted to 37.3 nM.

As for `CN(C)C(=O)CNC(=O)Nc1ccc2c(n1)Oc1ccccc1[C@@H]2C(C)(C)C(=O)Nc1nncs1` [Example 402], in assay [2] (setting [3]), the Ki was 699 nM.

Consider `CC(C)(C(=O)Nc1nncs1)[C@H]1c2ccccc2Oc2nc(N3CCC(C(=O)N4CCCC4)CC3)ccc21` [Example 403], for which the Ki in assay [2] (setting [3]) was 61.2 nM.

Turning to `Cc1ccn(-c2ccc3c(n2)Oc2ccccc2[C@@H]3C(C)(C)C(=O)Nc2nncs2)c(=O)c1` [Example 405], the Ki in assay [2] (setting [3]) was determined as 424 nM.

For `CC(C)(C)OC(=O)N1CC=C(c2ccc3c(n2)Oc2ccccc2[C@@H]3C(C)(C)C(=O)Nc2nncs2)CC1` [Example 406], the Ki in assay [2] (setting [3]) was 176 nM.

For `CC(C)(C(=O)Nc1nncs1)[C@H]1c2ccccc2Oc2nc(C3=CCNCC3)ccc21` [Example 407], the Ki in assay [2] (setting [3]) came to 958 nM.

With `CC(C)C(=O)N1CC=C(c2ccc3c(n2)Oc2ccccc2[C@@H]3C(C)(C)C(=O)Nc2nncs2)CC1` [Example 409], in assay [2] (setting [3]), the Ki was found to be 78.2 nM.

Turning to `CC(C)(C(=O)Nc1nnc(C(F)(F)F)s1)[C@H]1c2ccccc2Oc2nc(-c3ccc(C(=O)N4CCCC4)c(F)c3)ccc21` [Example 412], the Ki in assay [2] (setting [3]) was determined as 22.3 nM.

Consider `CC(C)(C(=O)NC1=NC(=O)CS1)[C@H]1c2ccccc2Oc2nc(-c3ccc(C(=O)N4CCCC4)c(F)c3)ccc21` [Example 413], for which the Ki in assay [2] (setting [3]) turned out to be 37.7 nM.

Consider `CC(C)(C(=O)Nc1cnns1)[C@H]1c2ccccc2Oc2nc(-c3ccc(C(=O)N4CCCC4)c(F)c3)ccc21` [Example 414], for which the Ki in assay [2] (setting [3]) was 589 nM.

Regarding `CC(=O)NC(C)(C)c1ccc(-c2ccc3c(n2)Oc2ccccc2[C@@H]3C(C)(C)C(=O)Nc2nncs2)cc1` [Example 415], the Ki in assay [2] (setting [3]) was 64.1 nM.

Consider `CC(C)(N)c1ccc(-c2ccc3c(n2)Oc2ccccc2[C@@H]3C(C)(C)C(=O)Nc2nncs2)cc1` [Example 416], for which the Ki in assay [2] (setting [3]) came to 94.5 nM.

With `CCCCCCc1ccc2c(n1)Oc1ccccc1[C@@H]2C(C)(C)C(=O)Nc1nncs1` [Example 437], the Ki in assay [2] (setting [3]) was found to be 11.1 nM.

Consider `CN(C)C(=O)c1ccc(-c2ccc3c(n2)Oc2ccccc2C3C(C)(C)C(=O)Nc2ccccn2)cc1` (centres unmarked) [Example 438], for which the Ki in assay [2] (setting [3]) was found to be 53.1 nM.

Regarding `CN(C)C(=O)c1ccc(-c2ccc3c(n2)Oc2ccccc2C3C(C)(C)C(=O)Nc2ncn[nH]2)cc1` (centres unmarked) [Example 439], the Ki in assay [2] (setting [3]) worked out at 65.8 nM.

As for `CN(C)C(=O)c1ccc(-c2ccc3c(n2)Oc2ccccc2C3C(C)(C)C(=O)Nc2ncc[nH]2)cc1` (centres unmarked) [Example 440], the Ki in assay [2] (setting [3]) came out at 21 nM.

In the case of `CC(C)(C(=O)Nc1nncs1)[C@H]1c2ccccc2Oc2nc(-c3ccc4c(c3)CCC4=O)ccc21` [Example 451], in assay [2] (setting [3]), the Ki amounted to 5.57 nM.

Regarding `CN(C)C(=O)n1cc(-c2ccc3c(n2)Oc2ccccc2[C@@H]3C(C)(C)C(=O)Nc2nncs2)cn1` [Example 453], the Ki in assay [2] (setting [3]) is 17.6 nM.

Take `CN(C)C(=O)c1ccc(-c2ccc3c(n2)Oc2ccccc2[C@@H]3C(C)(C)C(=O)Nc2nncs2)s1` [Example 462]: the Ki in assay [2] (setting [3]) stood at 3.78 nM.

Regarding `Cc1nnc(NC(=O)C(C)(C)[C@H]2c3ccccc3Oc3nc(-c4cc(F)c(C(=O)N(C)C)c(F)c4)ccc32)s1` [Example 469], the Ki in assay [2] (setting [3]) worked out at 49.8 nM.

Consider `Cc1nnc(NC(=O)C(C)(C)[C@H]2c3ccccc3Oc3nc(-c4ccc(C(=O)N5CCC(=O)CC5)cc4)ccc32)s1` [Example 475], for which the Ki in assay [2] is 18.3 nM.

`Cc1nnc(NC(=O)C(C)(C)[C@H]2c3ccccc3Oc3nc(-c4ccc(OC(C)C)c(Cl)c4)ccc32)s1` [Example 476]: the Ki in assay [2] (setting [3]) stood at 16.4 nM.

Regarding `CN(C)C(=O)c1ccc(-c2ccc3c(n2)Oc2ccccc2C3C2(C(=O)Nc3nncs3)CCOCC2)cc1` (centres unmarked) [Example 483], the Ki in assay [2] (setting [3]) turned out to be 426 nM.

With `CN(C)C(=O)c1ccc(-c2ccc3c(n2)Oc2ccccc2C3C2(C(=O)Nc3nncs3)CC2)cc1` (centres unmarked) [Example 489], the Ki in assay [2] (setting [3]) was 144 nM.

In the case of `CN(C)C(=O)c1ccc(-c2ccc3c(c2)Oc2ncccc2C3C(C)(C)C(=O)Nc2nncs2)cc1` (centres unmarked) [Example 490], the Ki in assay [2] (setting [3]) turned out to be 14.8 nM.

Regarding `CN(C)C(=O)c1ccc(-c2ccc3c(n2)Oc2ccccc2C3CC(=O)Nc2nncs2)cc1` (centres unmarked) [Example 491], the Ki in assay [2] (setting [3]) is greater than 1150 nM.

On to `Cc1nnc(NC(=O)C(C)(C)C2c3ccccc3Oc3cc(-c4ccc(C(=O)N5CCOCC5)cc4)ncc32)s1` (centres unmarked) [Example 493], for which the Ki in assay [2] (setting [3]) came out at 109 nM.
